“Also recorded” adds a separate entry of the source.
Experiments:
[1] = system: mouse intestinal organoids; assay: Organoid permeability assay with 4 kDa FITC-dextran, LPS with or without metabolites; format: cell-based; settings: ex vivo organoids
Method: Intestinal organoids were isolated as previously described (Das et al., 2015; Pearce et al., 2018). Briefly, crypts were isolated from small intestine of conventional house C57BL/6 male mice (Taconic Laboratories, Hudson, NY) by shaking in isolation buffer (2 mM EDTA in PBS), then, crypts were harvested, processed, and suspended in crypt culture medium (CCM), which consisted of advanced DMEM/F12 (Life Technologies, Carlsbad, CA) supplemented with serum-free B27 (1:50; Life Technologies), N2 (1:100; Life Technologies), N-acetylcysteine (1 mM; Sigma-Aldrich, St. Louis, MO), recombinant murine epithelial growth factor (EGF, 50 ng/ml; Peprotech, Rocky Hill, NJ), Noggin (100 ng/ml; Peprotech), R-Spondin (500 ng/ml; Peprotech), Glutamax-I supplement (1:100; Life Technologies), penicillin/streptomycin (500 μg/ml; Life Technologies), and HEPES ([…]; Life Technologies). Crypts were resuspended in 70% Matrigel (density ˜450 crypts per dome, 2 domes per well in 24-well plate) and allowed to solidify at 37° C. for 20 min. CCM (1.5 mL) was then added to each well. Cultures were incubated in a humidified incubator at 37° C., and CCM was changed daily. Intestinal organoid treatment with LPS and metabolites
We had 2 series of metabolite-treated organoid experiments, i.e., 1) organoid from conventional C57BL6 mice and 2) Ocln KO and littermate WT control as a gift from Prof. Jerrold Turner (Harvard University). […] Seeding is designated as day 0. On day 3 of culture, the existing media in the wells were completely removed before adding treatments. LPS (1 μg/mL) with or without metabolites, i.e., IPA (0.1 mM) (Li et al., 2021), IAM (200 μM) (Vyhlidalova et al., 2020), MNA (12 ng/ml) (Liu et al., 2015), CARN (20 mM) (Boldyrev et al., 2013) or ASA (1 μM) (Erez et al., 2011) were each added in CCM at known physiological concentrations, incubated for 48 hours, thereafter, organoid was harvested for RNA extraction, and paraformaldehyde fixation for immunostaining.
Permeability assays followed earlier work (Pearce et al., 2018). Briefly, all media were removed and then organoid were incubated with CCM containing 4 kDa FITC-dextran (Sigma-Aldrich, St. Louis, MO, Cat. #46944) at a final concentration of 1.25 µM for 30 minutes at 37° C. and at 5% CO2. […] A fluorescent microscope (Nikon Eclipse TI, NY) at a 10× magnification was used to observe and capture the fluorescence within the lumen of the organoids. Using the same area as the lumen, three different background samples are measured randomly around the lumen. The three background samples measured are averaged and then subtracted from the measured fluorescence of the lumen. […] The quantification of the fluorescence was conducted using the ImageJ 1.53 (NIH, Bethesda, MD).

[2] = system: human-derived Caco-2 cells; assay: In vitro transwell screening in Caco-2 cells, barrier disrupted by Clostridium difficile toxin (TEER and FITC-dextran permeability); format: cell-based
From the text: FIG. 20A-20B. In vitro screening of metabolites effective against leaky gut. FIG. 20A, Diagram of the in vitro transwell method used to evaluate efficacy of metabolites in protecting the leaky gut in human-derived Caco-2 cells. The luminal compartment represents the food side, and the basolateral the blood side. FIG. 20B, Transepithelial electrical resistance (TEER) measurements, and FITC-dextran measurements, evaluate the leakiness of the tight junction that regulates the pore (top) and leak (bottom) pathways of the gut. Ions (red), small molecules (blue), FITC-dextran (orange).
FIG. 21A-21D. Efficacy of tryptophan and vitamin B3 metabolites in protecting the gut barrier in vitro. FIG. 21A, TEER measurements of metabolites placed on luminal side of transwells for 72 hours. After 48 hours, the barrier was disrupted by the toxin of clostrium difficile (Cdiff). FIG. 21B, Integrated results of area under the curve using data from FIG. 21A. FIG. 21C, FITC-dextran permeability analysis of metabolites applied luminally. FIG. 21D, FITC-dextran permeability analysis of metabolites applied basolaterally.
FIG. 22A-22B. Efficacy of microbiota-derived indole metabolites in protecting the gut barrier. FIG. 22A, Integrated results of TEER measurements of metabolites placed on luminal side of transwells for 72 hours. After 48 hours, the barrier was disrupted by the toxin of clostrium difficile (Cdiff) FIG. 22B, FITC-dextran permeability analysis of metabolites from FIG. 22A applied luminally.
To perform in vitro screening of the metabolites effective against leaky gut, an in vitro transwell method was used. (FIG. 20A) The efficacy of these metabolites in protecting the leaky gut was analyzed in human-derived Caco-2 cells. Transepithelial electrical resistance (TEER) measurements evaluates the leakiness of the tight junction that regulates the pore (FIG. 20B, top) and leak (FIG. 20B, bottom) pathways of the gut. The higher the TEER, the less permeable the junction is to the movement of ions and small molecules. FITC-dextran is a large polysaccharide with a fluorescent moiety, typically used as a probe to assess the leakiness of the tight junction to large molecules like dextran. The faster the movement of FITC-dextran from lumen to blood, the greater the permeability.
(FIG. 21A) There was no effect of these metabolites on TEER when applied by themselves. After 48 h, the barrier was disrupted by the toxin of a common “bad” bacteria Clostridium difficile (Cdiff). TEER plummeted with this toxin (TOX, red line) compared to control (Veh, blue line). […] (FIG. 21A)

[3] = system: human-derived Caco-2 cells; assay: as above; format: cell-based; settings: applied in the basolateral compartment, TOX
Caco2 BBE monolayer = assay: TEER of confluent Caco2 BBE monolayer disrupted by luminal DSS, with MNA; format: cell-based, human; settings: low dose
Method: MNA was applied from Day-5 at different concentrations on the luminal (L) or basolateral (BL) compartments. The monolayer was disrupted by 3% DSS in the luminal side on days 5-8.
Caco2 were provided with MNA at day 0 either luminally (L, mimics oral) or basolaterally (BL, mimics intra-peritoneal) (FIG. 17). Then DSS was added to lumen to disrupt gut barrier in all treatments except control (blue circles).

[4] = system: leaky gut mouse model (DSS colitis); assay: DSS (3%) leaky gut colitis mouse model, metabolites i.p.; format: in vivo
From the text: A moderate amount of DSS (3%) creates a leaky gut model.
FIG. 23A, Analysis of plasma ovalbumin levels after oral ovalbumin gavage in mice treated with exogenous MNA or PBS. […] Analysis of fecal lipocalin levels in mice treated with PBS or MNA with or without DSS. […] Representative histology sections of mice treated with PBS or MNA with or without DSS. FIG. 23D, quantification of mouse histology sections scored for colitis index.
FIG. 24A, Analysis of zonula occludens (Tjp1) and occluding (Ocln) mRNA levels after treatment with PBS or MNA with or without DSS. FIG. 24B, Western blot analysis and quantification of Ocln protein levels after treatment with PBS or MNA with or without DSS. FIG. 24C, Quantified levels of occluding in the ileum (top) and colon (bottom) using immunofluorescence antibody staining.
Administration of DSS induces experimental colitis and disrupts gut barrier in vivo in animal models.
Exogenous MNA administration was assessed by plasma ovalbumin levels after oral ovalbumin gavage—an accepted method to determine permeability of the gut paracellular pathway. […] (FIG. 23B) Histology sections of mice treated with or without DSS and PBS or MNA were also obtained. […] Sections from several mice were also examined by a blinded observer and scored for colitis index.
(FIG. 24B) Using immunofluoresce antibody staining, quantified levels of occludin in the ileum and colon were also analyzed.

SMILES	disruption of the gut barrier, fluorescence microscopy (FIG. 11M) [1]	TEER, indole metabolites (FIG. 22A) ([2]; applied to the lumen, TOX)	TEER, indole metabolites [3]	TEER after DSS barrier disruption (Caco2 BBE monolayer)	body weight loss and recovery in DSS leaky gut model ([4]; 3% DSS, i.p. every other day, listed as MNA)	tissue damage in histology sections ([4]; DSS-treated animals)	fecal lipocalin levels ([4]; MNA-DSS vs PBS-DSS)	body weight when injected alone ([4]; i.p. every other day, no DSS)	barrier function (plasma ovalbumin after oral ovalbumin gavage), increase vs PBS treated mice ([4]; i.p. injection) [fold]	colitis score (colitis index, blinded observer) ([4]; with DSS)	mRNA levels of Tjp1 and Ocln in the ileum ([4]; with DSS)	integrated TEER (area under the curve, FIG. 21B) ([2]; luminal, C. difficile toxin)	TEER after C. difficile toxin (FIG. 21A) ([2]; metabolites on luminal side, toxin after 48 h)
NC(=O)Cc1c[nH]c2ccccc12 [Indole-3-acetamide, indole-3-acetamide]	prevented disruption of the gut barrier	clearly protective against TOX-induced decreases in TEER	more effective when applied in this compartment than in the luminal	–	–	–	–	–	–	–	–	–	–
C[n+]1cccc(C(N)=O)c1 [Methylnicotinamide, 1-methynicotinamide]	prevented disruption of the gut barrier	–	–	prevented barrier disruption	dampened then accelerated the recovery of body weight; also recorded: robust and faster recovery	alleviated	reduced fecal lipocalin	no deleterious effect on body weight	2	protected the tissue from damage even with DSS	increasing the mRNA levels to normal	protected the cells from barrier disruption by TOX	best at preventing the toxin-induced disruption of the barrier

Reference: patent publication US20240350456A1, “COMPOSITIONS AND METHODS FOR DIAGNOSING AND TREATING INFLAMMATORY CONDITIONS” (RUTGERS, THE STATE UNIVERSITY OF NEW JERSEY, priority 2023, published 2024)
